Active and inactive are the calls of the source. No cut-off for these calls is given here.
What was measured:
Mus musculus [1] = organism: Mus musculus; assay: Inhibition of acetyl-CoA carboxylase in mouse SCR1693 cells assessed as reduction in [14C]-acetate incorporation into fatty acid at 0.1 to 1 uM after 4 hrs; assay type: cell-based
Mus musculus [2] = organism: Mus musculus; assay: Cytotoxicity against mouse SCR1163 cells at 1.25 to 10 uM after 24 to 72 hrs by MTT assay; assay type: functional, cell-based
Mus musculus [3] = organism: Mus musculus; assay: Inhibition of acetyl-CoA carboxylase in mouse SCR1163 cells assessed as reduction in [14C]-acetate incorporation into fatty acid at 0.1 to 1 uM after 4 hrs; assay type: cell-based

With `CO[C@@H]1C/C=C/[C@H](C)[C@@H]2O[C@](O)([C@H](C)C(=O)O[C@H](c3ccccc3)CCCC1)[C@H](OC)[C@@H](O)[C@@H]2C` the inhibition (Mus musculus [1]) was 48%, the Activity (Mus musculus [2]) was “Active” and the inhibition (Mus musculus [3]) was 59%.
For `CO[C@H]1CCCC[C@@H](c2ccccc2)OC(=O)[C@@H](C)[C@@]2(O)O[C@H]([C@@H](C)[C@H](O)[C@H]2OC)[C@@H](C)/C=C/[C@H]1OC`, the inhibition (Mus musculus [1]) was “Active” and the inhibition (Mus musculus [3]) was “Active”.
